Reference: patent US20040203128A1, “Use of PP2A phosphatase modulators in the treatment of mental disorders” (priority 2002, published 2004)

Key:
[1] = test system: GSK-3β; assay: In vitro phosphorylation assay of GST-2E11 with recombinant GSK-3β kinase and PKA; assay type: biochemical; settings: LiCl at final concentration 0, 8.3, 25, 75 and 225 mM; signal negatively correlated with concentration
Procedure: Expression and purification of the GST-2E11 fusion protein were performed as described above. Beads with bound fusion protein corresponding to 1 ml of bacterial clear lysate were washed three times in NETN and one time with HMK buffer without DTT (20 mM Tris-HCl [pH 7.5], 120 mM NaCl, 12 mM MgCl2). Beads were resuspended in 240 μl of reaction mix (24 μl of 10×HMK Buffer with 20 mM DTT, 40 units of Protein Kinase A Catalytic Subunit [PKA from bovine heart, 250 units/vial, Sigma] in 40 mM DTT, 5 μl of 24 mM ATP and 207 μl of distilled water) and incubated for 30 min at room temperature. Beads were then washed three times in NETN buffer and one time in GSK-3β reaction buffer (20 mM Tris-HCl [pH 7.5], 10 mM MgCl2, 5 mM DTT) (New England Biolabs). Beads were then resuspended in 50 μl of reaction mix (5 μl of 10×GSK-3β reaction buffer, 1 μl of [^32P]γATP 10mCi/ml, 50 U of recombinant GSK-3β[New England Biolabs], and distilled water for a final volume of 50 μl) and incubated at room temperature for 30 min. After three washes in NETN buffer, phosphorylated proteins were boiled in 2× Sample Buffer (125 mM Tris-HCl [pH 6.8], 4% SDS, 20% glycerol, 1.4 M β-Mercapto ethanol), resolved by 10% SDS-PAGE, and visualized by autoradiography.
In this phosphorylation assay, non-radiolabeled polypeptides to be tested are incubated in the presence of GSK-3β, PKA and radioactive ATP. […]

[2] = test system: PP2A phosphatase; assay: In vitro dephosphorylation of phosphorylated GST-2E11 with HTB-14 whole cell extracts; assay type: biochemical, Human; settings: HTB-14 cell extracts plus 400 μM okadaic acid, 30 min, room temperature
Procedure: In vitro phosphorylated GST-2E11 fusion protein was incubated at room temperature for 30 min with 500 μg of whole cell extracts of Human glioblastoma, astrocytoma cell line (ATCC number: HTB-14) with or without 400 μM of the PP2A phosphatase inhibitor okadaic acid (Sigma). HTB-14 whole cell extracts were prepared as follow: cells were washed three times with ice-cold TBS buffer (10 mM Tris-HCl [pH 8.0], 120 mM NaCl) and lysed at 4° C. for 30 min in EBC buffer (50 mM Tris-HCl [pH 8.0], 120 mM NaCl, 0.5% Nonidet P-40). Then the lysate was centrifugated for 10 min at 13.000×g at 4° C. to pellet cell debris. Proteins present in the supernatant were quantified by the standard Bradford's method (Bio-Rad Protein Assay). The proteins were then resolved by 10% SDS-PAGE, and visualized by autoradiography.
The phosphorylated radiolabeled GST-2E11 proteins obtained from the previous assay were incubated in the presence of HTB-14 cell extracts containing the PP2A phosphatase to determine whether PP2A is capable of dephosphorylating GST-2E11 proteins. In this experiment, a protein that is dephosphorylated by PP2A is not radioactive after incubation in the presence of HTB-14 cell extracts any more. Thus dephosphorylation of the GST-2E11 protein is monitored by disappearance of the signal visualized by autoradiography. […]

Structure (SMILES) | intensity of the GST-2E11 band (phosphorylation) in the presence of LiCl [1] | intensity of the GST-2E11 band versus phosphorylated GST-2E11 reference (inhibition of dephosphorylation) [2]
[Cl-].[Li+] [LiCl] | decreased | 
C=C1[C@@H](O)[C@@H]2O[C@]3(CC[C@H](/C=C/[C@@H](C)[C@@H]4CC(C)=C[C@@]5(O[C@H](C[C@@](C)(O)C(=O)O)CC[C@H]5O)O4)O3)CC[C@H]2O[C@@H]1[C@@H](O)C[C@H](C)[C@H]1O[C@@]2(CCCCO2)CC[C@H]1C [okadaic acid] |  | only slightly weaker
